# Source: patent publication EP0184291B1, “Polyether antibiotic A80190” (ELI LILLY AND COMPANY, priority 1984, dated 1986)
# Values joined by “and” are separate entries in the source; they are usually repeats but may differ in a detail not shown here. Equal values may be shown once. Marks after values point to notes of the source that are not given here.
# Experiments:
# [1] = Ion-transport (ionophore) test
# [2] = system: Eimeria acervulina (Lilly strain 59), Eimeria maxima (strain FS-177) and Eimeria tenella (strain FS-155); test: Coccidiosis test in broiler chicks, A80190 with nicarbazin (Test 1); assay type: in vivo; details: Nicarbazin 0 p.p.m. in ration
# Solubility = assay type: physicochemical
# [3] = system: Saccharomyces pastorianus; test: Disc-diffusion method; assay type: cell-based; details: 6-mm pads dipped in 1 mg of compound per ml, read-out: Zone of Inhibition (mm diameter)
# Description: (§1) The inhibitory activity of A80190 is illustrated in Table VI. Activity was measured by the conventional disc-diffusion method (6-mm pads were dipped in solutions containing 1 mg of compound per ml of solution; pads were placed on agar plates seeded with test organism).
# Neurospora crassa = test: Disc-diffusion method; assay type: cell-based; details: 6-mm pads dipped in 1 mg of compound per ml, read-out: Zone of Inhibition (mm diameter)
# Description: as §1
# Candida albicans = test: Disc-diffusion method; assay type: cell-based; details: 6-mm pads dipped in 1 mg of compound per ml, read-out: Zone of Inhibition (mm diameter)
# Description: as §1
# Staphylococcus aureus = test: Disc-diffusion method; assay type: cell-based; details: 6-mm pads dipped in 1 mg of compound per ml, read-out: Zone of Inhibition (mm diameter)
# Description: as §1
# Mycobacterium avium = test: Disc-diffusion method; assay type: cell-based; details: 6-mm pads dipped in 1 mg of compound per ml, read-out: Zone of Inhibition (mm diameter)
# Description: as §1
# Bacillus subtilis = test: Disc-diffusion method; assay type: cell-based; details: 6-mm pads dipped in 1 mg of compound per ml, read-out: Zone of Inhibition (mm diameter)
# Description: as §1
# Micrococcus luteus = test: Disc-diffusion method; assay type: cell-based; details: 6-mm pads dipped in 1 mg of compound per ml, read-out: Zone of Inhibition (mm diameter)
# Description: as §1
# pKa determination = assay type: physicochemical; details: 66% aqueous dimethylformamide; free acid form
# From the text: Antibiotic A80190 has been assigned structure 1 based on X-ray crystallographic studies.
# Eimeria tenella = test: In vitro tissue culture anticoccidial screen; assay type: cell-based; details: Concentration 5 µg/ml
# From the text: Anticoccidial activity is an important property of the A80190 compounds. Table VIII summarizes the results of an in vitro tissue culture screen of A-80190 compounds vs. Eimeria tenella.
# two-spotted spider mite = test: Acaricidal activity; assay type: in vivo; details: Tetranychus urticae; read-out: active when applied at a rate as low as
# From the text: (§2) The A80190 compounds are also useful as insecticides and acaricides. For example, A80190 is active against the following insects as levels as low as the level indicated in parenthesis: mosquito larvae (<50 ppm), blowfly larvae (35 ppm), adult housefly (35 ppm), and Mexican bean beetle and southern armyworm (<100 ppm). A80190 is also active against mites such as two-spotted spider mite when applied at a rate as low as 25 ppm.
# crabgrass = test: Herbicidal activity; assay type: in vivo; details: 2 lb/acre (200 gpa), either pre-emergence or post-emergence
# From the text: (§3) In another aspect, the A80190 compounds have herbicidal activity. For example, A80190 is active against crabgrass, mustard and pigweed at 2 lb/acre (200 gpa) either pre-emergence or post-emergence.
# mustard = test: Herbicidal activity; assay type: in vivo; details: 2 lb/acre (200 gpa), either pre-emergence or post-emergence
# From the text: as §3
# pigweed = test: Herbicidal activity; assay type: in vivo; details: 2 lb/acre (200 gpa), either pre-emergence or post-emergence
# From the text: as §3
# adult housefly = test: Insecticidal activity; assay type: in vivo; details: Musca domestica; read-out: active at levels as low as
# From the text: as §2
# southern armyworm = test: Insecticidal activity; assay type: in vivo; details: Spodoptera eridania; read-out: active at levels as low as
# From the text: as §2
# mosquito larvae = test: Insecticidal activity; assay type: in vivo; details: read-out: active at levels as low as
# From the text: as §2
# blowfly larvae = test: Insecticidal activity; assay type: in vivo; details: read-out: active at levels as low as
# From the text: as §2
# Mexican bean beetle = test: Insecticidal activity; assay type: in vivo; details: Epilachna varivestis; read-out: active at levels as low as
# From the text: as §2
# [4] = system: Peptostreptococcus intermedius 1624; test: Agar-dilution assay, anaerobic bacteria; assay type: cell-based; details: 24-hour incubation
# Description: (§4) One important aspect of the antimicrobial activity of A80190 compounds relates to their activity against anaerobic bacteria. The minimal inhibitory concentrations (MIC's) at which A80190 inhibits various anaerobic bacteria, as determined by standard agar-dilution assay, are summarized in Table VII. End points were read after 24-hour incubation.
# [5] = system: Peptococcus asaccharolyticus 1302; test: Agar-dilution assay, anaerobic bacteria; assay type: cell-based; details: Peptoniphilus asaccharolyticus, 24-hour incubation
# Description: as §4
# [6] = system: Propionibacterium acnes 79; test: Agar-dilution assay, anaerobic bacteria; assay type: cell-based; details: Cutibacterium acnes, 24-hour incubation
# Description: as §4
# [7] = system: Peptostreptococcus anaerobius 1428; test: Agar-dilution assay, anaerobic bacteria; assay type: cell-based; details: 24-hour incubation
# Description: as §4
# [8] = system: Fusobacterium symbiosum 1470; test: Agar-dilution assay, anaerobic bacteria; assay type: cell-based; details: 24-hour incubation
# Description: as §4
# [9] = system: Eubacterium aerofaciens 1235; test: Agar-dilution assay, anaerobic bacteria; assay type: cell-based; details: Collinsella aerofaciens, 24-hour incubation
# Description: as §4
# [10] = system: Clostridium septicum 1128; test: Agar-dilution assay, anaerobic bacteria; assay type: cell-based; details: 24-hour incubation
# Description: as §4
# [11] = system: Fusobacterium necrophorum 6054A; test: Agar-dilution assay, anaerobic bacteria; assay type: cell-based; details: 24-hour incubation
# Description: as §4
# [12] = system: volatile-fatty-acid (VFA) concentrations; test: Ruminant feed-utilization efficiency test (VFA in flasks, method of U.S. Patent 3,794,732); parameters: species or system ruminants; details: ratio treated flasks to control flasks
# From the text: The efficiency of feed use can be monitored by observing the production and concentration of propionate compounds in the rumen using the method described by Arthur P. Raun in U.S. Patent 3,794,732 (see especially Example 5).
compound,measurement,setting,value
CC[C@@H](O)[C@]1(C)C[C@H](C)[C@@](O)([C@H]2C[C@H](C)[C@H]([C@]3(C)C[C@@H](O[C@H]4CC[C@H](OC)[C@@H](C)O4)[C@H]([C@@H]4CC[C@@]5(O[C@H]([C@@H](C)[C@@H](OC)[C@H](C)C(=O)O)[C@H](C)[C@@H](OC)[C@H]5C)O4)O3)O2)O1 [Example A80190],"ionophorous effect, comparison of cations",[1]; 0.2 µg/ml concentration,even greater ionophorous effect with Cs⁺ than with Na⁺
same,ionophorous activity,[1]; 0.5 µg/ml concentration,showed ionophorous activity
same,"ionophorous activity, comparison of cations",[1]; 0.5 µg/ml concentration,"its activity with Na⁺, K⁺ and Rb⁺ was better than that with Cs⁺ or Li⁺"
same,CECAL LESION SCORES,[2]; A80190 4 p.p.m.,2.63
same,INTESTINAL LESION SCORES,[2]; A80190 4 p.p.m.,8.63
same,WEIGHT GAIN,[2]; A80190 4 p.p.m.,236 grams/per chicken
same,CECAL LESION SCORES,[2]; A80190 8 p.p.m.,1.75
same,INTESTINAL LESION SCORES,[2]; A80190 8 p.p.m.,5.94
same,WEIGHT GAIN,[2]; A80190 8 p.p.m.,265 grams/per chicken
same,CECAL LESION SCORES,[2]; A80190 12 p.p.m.,1.19
same,INTESTINAL LESION SCORES,[2]; A80190 12 p.p.m.,3.50
same,WEIGHT GAIN,[2]; A80190 12 p.p.m.,251 grams/per chicken
same,CECAL LESION SCORES,[2]; A80190 16 p.p.m.,0.19
same,INTESTINAL LESION SCORES,[2]; A80190 16 p.p.m.,1.19
same,WEIGHT GAIN,[2]; A80190 16 p.p.m.,272 grams/per chicken
same,CECAL LESION SCORES,[2]; A80190 20 p.p.m.,0.0
same,INTESTINAL LESION SCORES,[2]; A80190 20 p.p.m.,0.0
same,WEIGHT GAIN,[2]; A80190 20 p.p.m.,261 grams/per chicken
same,Solubility,"Solubility; lower alcohols such as methanol, ketones such as acetone, esters such as ethyl acetate, halogenated hydrocarbons such as chloroform, diethyl ether, benzene, toluene, warm hexane",soluble
same,Solubility,Solubility; water,Insoluble
same,zone of inhibition at 1000 µg/mL,[3],10 mm
same,zone of inhibition at 1000 µg/mL,Neurospora crassa,14 mm
same,zone of inhibition at 1000 µg/mL,Candida albicans,14 mm
same,zone of inhibition at 1000 µg/mL,Staphylococcus aureus,17 mm
same,zone of inhibition at 1000 µg/mL,Mycobacterium avium,21 mm
same,zone of inhibition at 1000 µg/mL,Bacillus subtilis,23 mm
same,zone of inhibition at 1000 µg/mL,Micrococcus luteus,20 mm
same,pKa,pKa determination,6.2
same,Activity vs. Eimeria tenella In Vitro,Eimeria tenella,C^a
same,minimal effective concentration,two-spotted spider mite,25 µg/mL
same,herbicidal activity,crabgrass,active
same,herbicidal activity,mustard,active
same,herbicidal activity,pigweed,active
same,minimal effective concentration,adult housefly,35 µg/mL
same,minimal effective concentration,southern armyworm,< 100 µg/mL
same,minimal effective concentration,mosquito larvae,< 50 µg/mL
same,minimal effective concentration,blowfly larvae,35 µg/mL
same,minimal effective concentration,Mexican bean beetle,< 100 µg/mL
same,MIC,[4],1 µg/mL
same,MIC,[5],1 µg/mL
same,MIC,[6],1 µg/mL
same,MIC,[7],1 µg/mL
same,MIC,[8],8 µg/mL
same,MIC,[9],< 0.5 µg/mL
same,MIC,[10],< 0.5 µg/mL
same,MIC,[11],16 µg/mL
same,Molar % Acetate,[12]; Dosage 0.3 mcg/ml,0.970
same,Molar % Butyrate,[12]; Dosage 0.3 mcg/ml,0.819
same,Molar % Propionate,[12]; Dosage 0.3 mcg/ml,1.220*
same,Total VFA/ Control VFA mM/L,[12]; Dosage 0.3 mcg/ml,0.967
same,Molar % Acetate,[12]; Dosage 1 mcg/ml,0.926 and 0.986 and 0.892 and 1.016
same,Molar % Butyrate,[12]; Dosage 1 mcg/ml,0.529 and 0.851 and 0.813 and 0.706
same,Molar % Propionate,[12]; Dosage 1 mcg/ml,1.566* and 1.185* and 1.403* and 1.247*
same,Total VFA/ Control VFA mM/L,[12]; Dosage 1 mcg/ml,0.913 and 0.916 and 0.887 and 0.857
same,Molar % Acetate,[12]; Dosage 3 mcg/ml,0.998
same,Molar % Butyrate,[12]; Dosage 3 mcg/ml,0.611
same,Molar % Propionate,[12]; Dosage 3 mcg/ml,1.368*
same,Total VFA/ Control VFA mM/L,[12]; Dosage 3 mcg/ml,0.963
